From US8962621B2 (Shanghai Institute of Pharmaceutical Industry, priority 2010, dated 2015)
Read-outs that look alike come from different tables or passages of the source.

Experiments:
DA Transporter (hDAT) = DA Transporter (hDAT) (Homo sapiens, UniProt Q01959); experiment: Inhibition of [3H]-DA reuptake in HEK 293 cells stably expressing hDAT; details: for inhibition at 10 µM: HEK293, read-out: DA Reuptake Inhibition; for DA Reuptake Inhibition: 10 μmol/L final concentration (b487 prints 0.1 mmol/L), HEK 293 hDAT cells, [3H]-DA
DA Transporter (hDAT), sequence (Q01959 whole entry): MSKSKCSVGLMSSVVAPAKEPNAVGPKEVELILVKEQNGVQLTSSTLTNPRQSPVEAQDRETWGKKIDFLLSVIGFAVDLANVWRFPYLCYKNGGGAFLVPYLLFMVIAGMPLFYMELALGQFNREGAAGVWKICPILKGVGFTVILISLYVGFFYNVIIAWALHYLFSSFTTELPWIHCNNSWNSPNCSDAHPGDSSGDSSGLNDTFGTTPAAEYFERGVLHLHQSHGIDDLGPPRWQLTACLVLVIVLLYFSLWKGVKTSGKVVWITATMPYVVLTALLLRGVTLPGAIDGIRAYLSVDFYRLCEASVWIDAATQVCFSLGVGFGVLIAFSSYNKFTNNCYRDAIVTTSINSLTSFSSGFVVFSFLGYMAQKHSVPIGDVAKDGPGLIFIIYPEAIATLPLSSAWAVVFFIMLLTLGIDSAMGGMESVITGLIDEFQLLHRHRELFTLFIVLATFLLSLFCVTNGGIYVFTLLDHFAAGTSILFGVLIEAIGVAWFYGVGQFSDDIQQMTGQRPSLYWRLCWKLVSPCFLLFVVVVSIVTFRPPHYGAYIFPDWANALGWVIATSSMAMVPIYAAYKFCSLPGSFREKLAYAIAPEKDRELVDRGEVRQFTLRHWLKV

5-HT Transporter (hSERT) = 5-HT Transporter (hSERT) (Homo sapiens, UniProt P31645); experiment: Inhibition of [3H]-5-HT reuptake in HEK 293 cells stably expressing hSERT; details: for inhibition at 10 µM: HEK293, read-out: 5-HT Reuptake Inhibition; for 5-HT Reuptake Inhibition: 10 μmol/L final concentration (b487 prints 0.1 mmol/L), HEK 293 hSERT cells, [3H]-5-HT;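 as to all read-outs here: compound preincubated 10 min at 30 °C, then 10 min uptake, filter-bound radioactivity counted by scintillation, inhibition relative to total (blank) minus non-specific (positive control) uptake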
5-HT Transporter (hSERT), sequence (P31645 whole entry): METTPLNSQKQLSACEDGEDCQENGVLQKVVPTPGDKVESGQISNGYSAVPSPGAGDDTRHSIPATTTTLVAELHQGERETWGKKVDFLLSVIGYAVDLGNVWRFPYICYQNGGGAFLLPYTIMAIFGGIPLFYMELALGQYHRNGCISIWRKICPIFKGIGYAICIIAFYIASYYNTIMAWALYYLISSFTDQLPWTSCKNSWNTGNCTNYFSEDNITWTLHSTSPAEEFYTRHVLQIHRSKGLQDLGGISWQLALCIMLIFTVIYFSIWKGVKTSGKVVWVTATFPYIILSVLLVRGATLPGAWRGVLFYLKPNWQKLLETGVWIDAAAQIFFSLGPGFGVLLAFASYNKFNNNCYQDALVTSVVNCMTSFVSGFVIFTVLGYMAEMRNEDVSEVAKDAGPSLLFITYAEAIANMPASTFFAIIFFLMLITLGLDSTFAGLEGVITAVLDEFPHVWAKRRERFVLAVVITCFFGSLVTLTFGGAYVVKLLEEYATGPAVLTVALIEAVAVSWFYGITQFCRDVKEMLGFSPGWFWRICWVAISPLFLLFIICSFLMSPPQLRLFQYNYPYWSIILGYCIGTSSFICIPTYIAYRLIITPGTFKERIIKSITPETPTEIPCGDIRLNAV

male ICR mice = experiment: Mice tail suspension test; format: in vivo; details: for IT (sec), immobility time: 20.0 mg/kg single intragastric administration, 1 h before test, 4 min observation, n=12; for Improvement (%): 20.0 mg/kg single oral administration, versus blank control IT; for effect on immobility time in the tail suspension test (in words): efficacy similar to Venlafaxine
Procedure: Through intragastric administration, 10 mL·kg^−1 of each sample (physiological saline for the blank control group) is administrated. After 1 h of the treatment, the mouse is held with a medical tape at a position around 2 cm from the tip of its tail and hung upside-down in the suspension cage with its head 5 cm away from the bottom of the cage. The observation starts right after the mouse is suspended for 2 min and continues for 4 min. The time during which the mouse is immobile (no struggling or only tiny movements of its body/limbs) in this 4 min is accumulated (IT, immobility time). The percentage of the improvement is calculated according to the equation: Improvement %=[IT (blank control group)−IT (compound treatment group)]/IT (blank control group)×100%

NA Transporter (hNAT) = NA Transporter (hNAT) (Homo sapiens, UniProt P23975); experiment: Inhibition of [3H]-NA reuptake in HEK 293 cells stably expressing hNAT; details: for inhibition at 10 µM: HEK293, read-out: NA Reuptake Inhibition; for NA Reuptake Inhibition: 10 μmol/L final concentration (b487 prints 0.1 mmol/L), HEK 293 hNAT cells, [3H]-NA
NA Transporter (hNAT), sequence (P23975 whole entry): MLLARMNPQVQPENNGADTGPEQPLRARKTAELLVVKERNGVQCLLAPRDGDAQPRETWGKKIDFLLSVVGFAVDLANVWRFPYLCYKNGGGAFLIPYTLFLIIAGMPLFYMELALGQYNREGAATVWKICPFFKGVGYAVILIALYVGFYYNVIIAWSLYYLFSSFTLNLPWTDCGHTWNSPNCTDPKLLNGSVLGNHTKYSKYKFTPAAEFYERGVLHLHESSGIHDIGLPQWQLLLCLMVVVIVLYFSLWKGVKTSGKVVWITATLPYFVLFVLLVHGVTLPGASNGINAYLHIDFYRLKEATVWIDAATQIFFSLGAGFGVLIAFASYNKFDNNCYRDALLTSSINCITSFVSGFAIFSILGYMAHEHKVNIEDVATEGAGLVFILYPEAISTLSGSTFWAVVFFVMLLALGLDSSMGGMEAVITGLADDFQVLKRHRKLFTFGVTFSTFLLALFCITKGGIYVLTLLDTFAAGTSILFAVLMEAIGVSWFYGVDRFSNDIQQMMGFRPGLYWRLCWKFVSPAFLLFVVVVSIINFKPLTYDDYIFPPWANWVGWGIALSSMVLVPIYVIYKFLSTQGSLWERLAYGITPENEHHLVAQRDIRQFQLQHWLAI

male Kunming mice = experiment: Mice forced swimming test; format: in vivo; details: for effect in the forced swimming test (in words): 20 mg/kg; for IT (sec), immobility time: 20.0 mg/kg single intragastric administration, 1 h before test, last 4 min of 6 min, n=12
Procedure: Through intragastric administration, 10 mL·kg^−1 of each sample (physiological saline for the blank control group) is administrated. The mice are pre-screened for swimming one day before the actual test. The mouse is placed into water (25° C., 10 cm deep) in a glass tank (height 20 cm, diameter 14 cm) and forced to swim for 6 min. Those who stop swimming at around 70-160 s are chosen for the actual test which starts 24 h later. After 1 h of the administration, the forced swimming test is performed by placing the animal into the above-mentioned environment to swim for 6 min. The accumulative immobility time for the last 4 min is recorded. Data is statistically analyzed with t-test.

[1] = Acute toxicity experiment (single oral gavage); details: mouse, in vivo
[2] = test system: Histidine auxotroph mutant of mouse salmonella TA97, TA98, TA100 and TA102; format: cell-based; details: for bacteriostatic action: 5000 μg per dish, TA98 without S9 and TA97 with S9, none at other dosages; for Ames test result: TA97, TA98, TA100, TA102, with or without S9, all test dosages
Description: 5. […] 6. Bacterial Reverse Mutation Test of Compounds VI-1 VI-2 and VI16 • Strains: Histidine auxotroph mutant of mouse salmonella TA97, TA98, TA100 and TA102. • Test method: The one reported in Maron DM et al: (1983) Mutay Res. 113, 173-216 is used. • Results: The test consists of two parts, i.e., −S9 and +S9. […] No bacteriostatic actions to all the strains are observed at all the other dosages, and the growth background is good.

rats = experiment: Learned helplessness experiment (conditioned avoidance test); format: in vivo
Description: (1) Principles • This is an animal model of depression. In this experiment, an animal is placed under conditions with aversive stimulus which it can't escape. […] This is a well recognized depression state, in which the level of catecholamine in the animal's brain is reduced. An antidepressant can act against this state. The learned helplessness model is sensitive to a variety of antidepressants used in a sub-long period (3-7 d), including tricyclic antidepressants, monoamine oxidase inhibitors, monoamine reuptake inhibitors and atypical antidepressants.
(2) Test Method • The animals are grouped. The pre-shock animals are generated the first day by performing inescapable electric shock. The pre-shock animals are given foot electric shock (0.8 mA, 15 s) for 60 times (1 min interval). Rats in the control group are only put into the cage for a same period of time but without any electric shock. • The administration of drugs starts the next day and lasts for one week. […] The conditioned avoidance test is conducted 24 h after the last administration to determine the number of times of successful avoidance and the incubation period of escape.

[3] = 30 mg/kg, one week, test 24 h after last administration, n = 10
[4] = Venlafaxine 30 mg/kg, VI-2 at 3 doses (20, 10, 5 mg/kg)

Row | SMILES | inhibition at 10 µM (DA Transporter (hDAT)) [%] | inhibition at 10 µM (5-HT Transporter (hSERT)) [%] | IT (sec), immobility time (male ICR mice) [s] | Improvement (%) (male ICR mice) | effect on immobility time in the tail suspension test (in words) (male ICR mice; 20 mg/kg) | inhibition at 10 µM (NA Transporter (hNAT)) [%] | effect in the forced swimming test (in words) (male Kunming mice) | IT (sec), immobility time (male Kunming mice) [s] | inhibition effect towards the reuptake of 5-HT (in words) (5-HT Transporter (hSERT)) | DA Reuptake Inhibition (DA Transporter (hDAT)) [%] | 5-HT Reuptake Inhibition (5-HT Transporter (hSERT)) [%] | NA Reuptake Inhibition (NA Transporter (hNAT)) [%] | further results
1 | CN(C)CCC(c1cc2ccccc2s1)N1CCCC1 (stereo not drawn) [VI-19, N,N-dimethyl-3-(benzothiophen-2-yl)-3-(pyrrolidin-1-yl)-propylamine] | 75.6 | 95.3 | 50.28 ± 21.30 | 49.31 | significant reduction in the immobility time | 91.2 | significant reduction in the immobility time | 60.7 ± 26.7 | – | – | – | – | –
2 | COc1ccc2cc(C(CCN(C)C)N3CCCC3)ccc2c1Cl (stereo not drawn) [VI-36, N,N-dimethyl-3-(5-chloro-6-methoxynaphthalen-2-yl)-3-(pyrrolidin-1-yl)-propylamine] | 87.2 | 98.3 | 39.91 ± 18.35 | 59.29 | significant reduction in the immobility time | 97.8 | significant difference from that of the blank control | 90.6 ± 48.0 | – | – | – | – | –
3 | CCN(CC)CCC(c1ccc(Cl)c(Cl)c1)N1CCCC1 (stereo not drawn) [VI-1, N,N-diethyl-3-(3,4-dichlorophenyl)-3-(pyrrolidin-1-yl)-propylamine] | 101 | 98.2 | 48.17 ± 38.29 | 51.44 | significant reduction in the immobility time | 101 | significant reduction in the immobility time | 57.1 ± 37.8 | relatively strong inhibition effect | – | – | – | LD50 ([1]; po): 1050 mg/kg; bacteriostatic action [2]: bacteriostatic action is showed; Ames test result [2]: negative
4 | CN(C)CCC(c1csc2ccccc12)N1CCCC1 (stereo not drawn) [VI-13, N,N-dimethyl-3-(benzothiophen-3-yl)-3-(pyrrolidin-1-yl)-propylamine] | 96.9 | 96.6 | 38.29 ± 23.76 | 61.40 | significant reduction in the immobility time | 98.8 | significant reduction in the immobility time | 44.9 ± 53.7 | – | – | – | – | –
5 | CN(C)CCC(c1cc2ccccc2s1)N1CCCCC1 (stereo not drawn) [VI-22, N,N-dimethyl-3-(benzothiophen-2-yl)-3-piperidinyl-propylamine] | – | – | 65.25 ± 28.39 | 34.22 | – | – | significant reduction in the immobility time | 75.4 ± 40.3 | relatively strong inhibition effect | 96.5 | 96.3 | 99.8 | –
6 | CN(C)CCC(c1ccc(Cl)c(Cl)c1)N1CCOCC1 (stereo not drawn) [VI-4, N,N-dimethyl-3-(3,4-dichlorophenyl)-3-morpholinyl-propylamine] | – | – | 38.65 ± 16.32 | 61.04 | significant reduction in the immobility time | – | significant reduction in the immobility time | 52.8 ± 32.0 | relatively strong inhibition effect | 89.9 | 101.9 | 93.6 | –
7 | CN(C)CCC(c1c[nH]c2ccccc12)N1CCOCC1 (stereo not drawn) [VI-31, N,N-dimethyl-3-(indol-3-yl)-3-morpholinyl-propylamine] | – | – | 78.36 ± 23.00 | 20.84 | – | – | significant difference from that of the blank control | 99.7 ± 43.7 | relatively strong inhibition effect | 75.6 | 87.9 | 88.1 | –
8 | CN(C)CCC(c1csc2ccccc12)N1CCCCC1 (stereo not drawn) | 80.2 | 90.5 | 45.21 ± 28.19 | 54.42 | significant reduction in the immobility time | 92.1 | significant reduction in the immobility time | 62.1 ± 42.9 | relatively strong inhibition effect | – | – | – | LD50 ([1]; mice, single oral gavage, Bliss method, read-out: LD50): 870 mg/kg; bacteriostatic action [2]: bacteriostatic action is showed; Ames test result [2]: negative
9 | CN(C)CCCC(c1csc2ccccc12)N1CCOCC1 (stereo not drawn) [VI-46, N,N-dimethyl-4-(benzothiophen-3-yl)-4-morpholinyl-butylamine] | – | – | 86.19 ± 35.87 | 13.01 | – | – | significant difference from that of the blank control | 97 ± 48.5 | relatively strong inhibition effect | 78.0 | 92.3 | 89.5 | –
10 | Clc1ccc(C(CCN2CCOCC2)N2CCCC2)cc1Cl (stereo not drawn) [VI-6] | – | – | 25.68 ± 14.25 | 74.11 | significant reduction in the immobility time | – | significant difference from that of the blank control | 79.3 ± 53.1 | – | 106.4 | 106.3 | 101.4 | –
11 | COc1ccc(C(CN(C)C)C2(O)CCCCC2)cc1 (stereo not drawn) [Venlafaxine, reference compound] | 52.4 | – | 36.97 ± 21.10 | 62.73 | – | 96.4 | – | 77.4 ± 47.2 | – | – | – | – | Incubation period of escape (rats; [3]): 72.8 ± 77.26 s; Number of times of successful avoidance (rats; [3]): 19.4 ± 6.88; incubation period of escape (in words) (rats; [4]): significantly shortened incubation period of escape; times of successful avoidance (in words) (rats; [4]): relatively more times of successful avoidance; immobility time (male ICR mice; 20 mg/kg): 36.97 ± 21.10 s
